# According to patent US6605639B1, “Ligands of nuclear receptor” (Nuclear Receptor Research, Ltd., priority 1998, dated 2003):
# Where “and” joins values, the source holds several entries; their conditions need not be identical. Identical values can stand only once. Entries after “also recorded” stand apart in the source; their conditions may differ.
# How the values were obtained:
# db/db mice [1] = conditions: oral; cited from earlier work
# db/db mice [2] = experiment: Calcium metabolism in db/db mice; assay type: in vivo, mouse; conditions: administration for 1 week
# From the text: RXR also forms a heterodimer with a nuclear receptor, VDR, which acts with active vitamin D3 (1a,25-dihydrocyvitamin D3) as a ligand. However, no study has been made so far how the formation of this heterodimer means in vivo. Thus the effect of this heterodimer on gene transcription and, in its turn, its physiological meaning still remain unknown. Activated vitamin D3 is essential for bone development and growth in children. Also, it is essential for preventing osteoporosis and bone fracture in aged and sick persons. In spite of such meaningful effects, studies have not been conducted to clarify the function of the heterodimer of VDR with RXR. The inventors studied calcium metabolism in db/db mice and the effect of Compound-14 on the calcium metabolism. This study was partly reported in 1992 (Tomoyoshi Hosokawa, Nogei Kagaku Kai-shi (J. Agr. Chem.), 66:1221-1226, 1992). Compared with normal litter of the same age, db/db mice show abnormally high levels of urinary calcium, blood calcium, blood calcitonin and parathyroid hormone. […] By feeding db/db mice over a long time of period (4 weeks), it was found out that these animals suffered form a decrease in bone mineral density compared with normal litter of the same age. […]
# white rabbits = experiment: Inhibition of arteriosclerosis in white rabbits fed high fat feed; conditions: 14 weeks
# Description: Thus, a high fat feed was prepared by adding 10% of hardened coconut oil, 2% of cholesterol, 0.5% of bovine bile powder and 0.04% or 0.01% of ascochlorin to a powdery marketed standard white rabbit feed and molded the mixture into pellets. Separately, another high fat feed for the control group was prepared without using ascochlorin.
# Twenty-four white rabbits weighing about 2 kg were divided into 4 groups at random. One of these groups was regarded as the control group, while the remaining 3 groups were respectively regarded as the clofibrate group, the ascochlorin 0.01% group and the ascochlorin 0.04% group at random. Then the experiment was carried out for 14 weeks.
# DOCA hypertensive rats = experiment: Aneurysm formation in the mesenteric artery of DOCA hypertensive rats; assay type: in vivo, rat; set-up: Lesion index, individual rats / Lesion index, Avg: scale not given here; conditions: for Appearance frequency (node count/arteriole count×100), individual rats / Lesion index, individual rats / Appearance frequency, Avg / Lesion index, Avg / Node count, Avg / Node count, individual rats: 7 weeks; for Appearance frequency, Avg / Lesion index, Avg / Node count, Avg: 6 rats; for Node count, individual rats: counted thrice, average
# From the text: The compounds of the present invention show an effect of inhibiting periarteritis nodosa in a malignant hypertension model rat in which periarteritis nodosa arises in the mesenteric artery and progresses into aneurysm. Among aneurysms, those formed in the mesenteric artery can be treated quantitatively. Thus, the mesenteric artery was taken out and fixed with formalin. Then it was fat-stained and arterioles and aneurysms were counted thrice and the average aneurysm count per arteriole was calculated. To rats with renal hypofunction due to the excision of one kidney, […] saline, having a somewhat higher osmotic pressure than plasma, was given as drinking water and 10 mg/kg of deoxycorticosterone acetate (DOCA) (a mineral corticoid) was subcutaneously administered at intervals of 1 week. Twenty-four male Wistar rats were divided into 4 groups at random. After taking out the left kidney, each animal was allowed to stand and the operative wound was fused. […] The experiment was carried out for 7 weeks. Since the initiation of the experiment, the feed intake, water intake, urine, body weight and blood pressure of each group were measured once every three days.
# The average blood pressure exceeded 180 mmHg in the 3rd week and attained 200 mmHg in the 4th week. […] In the 7th week, each animal was dissected and the mesenteric artery was taken out. After treating with formalin, the artery was fat-stained and aneurysms were counted. […] In the high-dose Compound-6 group, the average aneurysm count per arteriole was lowered to 0.27±0.05.
# Arterioles and nodes in the mesenteric artery were each counted thrice and the average was calculated.
# a) Appearance frequency=node count/arteriole count×100 (%).
# [3] = system: patients suffered from hypercholesterolemia; experiment: Phase I clinical test; assay type: in vivo, human; conditions: for Serum total cholesterol: Mean ± SE
# Description: A phase I clinical test of Compound-6, one of the compounds of the present invention, was carried out with 17 female and male patients aged 40 to 82 suffered from hypercholesterolemia. The experiment was continued for 12 weeks and Compound-6 was administered in the first 8 weeks. […] From the 8th week to the 12th week (the placebo-administration period) a placebo was given without notifying the patients. The drug in a daily dose was divided into 3 portions and taken after meals. Each patient visited the hospital once a week and was subject to investigation and blood collection for analyzing serum.
# [4] = system: rats with adjuvant arthritis; experiment: Therapeutic effect on rat adjuvant arthritis; assay type: in vivo; conditions: for Inflammation score (5 grades, 1 normal to 5 disabled by swelling in both hind legs): 7 times, day 7
# Description: Rats with arthritis employed in Experiment 1 were individuals which suffered from serious arthritis caused by the injection of an adjuvant 45 days ago and thus crawled on forelegs since they could not bend hind legs. Drug effects were evaluated by observing walking, observation with the naked eye of the severity of inflammation in hind legs and the volume of swelling in legs. To 19 SD male rats (weighing about 300 g), Freund's […] adjuvant containing dead tubercle bacillus Aoyama B strain was subcutaneously injected into the tail root to induce arthritis in hind legs. Compound-6 was suspended in a tragacanth gum solution and orally administered at a ratio of 0.5 ml/100 g body weight. Compound-6 was administered to 3 groups including the high-dose model (HM; 50 mg/kg), the medium-dose model (MM; 25 mg/kg) and the low-dose model (LM; 10 mg/kg). Administration was made once a day in morning continuously 7 times. During this period, the hind leg volume was measured at the initiation of the experiment and 2, 4 and 7 days thereafter. The volume change was calculated by referring the volume at the initiation of the experiment as to 100%. On the 7th day, the inflammation conditions in hind legs were evaluated in 5 grades with the naked eye.
# Immediately after administration, the three Compound-6 groups were combined and divided again depending on the occurrence of arthritis (i.e., positive and negative groups). Then the data were compared with the data of the control group.
# [5] = After 10 weeks, placebo period after 8 weeks of drug (carry-over)
# [6] = After 12 weeks, placebo period after 8 weeks of drug (carry-over)
# [7] = three dose groups combined, total 14
compound,measurement,setting,value
"CC(/C=C/[C@@]1(C)[C@H](C)CCC(=O)[C@@H]1C)=C\Cc1c(O)c(C=O)c(C)c(Cl)c1OCC(=O)O [Compound-14, 4-O-carboxymethylASC]","blood glucose level, serum lipid level and serum insulin level",db/db mice [1],significantly lowered
same,"urinary calcium, blood calcium and calcitonin levels",db/db mice [2],significantly lowered
"3-[5-[l(R),2(S),6(S)-trimethyl-3-oxocylohexyl]-3-methyl-2,4-pentadienyl]-2,4-dihydroxy-5-chloro-6-methylbenzaldehyde [Compound-1]",lesions of obstruction in the coronary artery,white rabbits; 0.01% and 0.04% in high fat feed,significantly alleviated
same,survival until the completion of the experiment,"white rabbits; 0.01% and 0.04% in high fat feed, 6 animals per group",all individuals survived
same,increase in the serum total cholesterol level,white rabbits; high fat feed,would not suppress increase
"COc1c(Cl)c(C)c(C=O)c(O)c1C/C=C(C)/C=C/[C@@]1(C)[C@H](C)CCC(=O)[C@@H]1C [Compound-6, 4-O-methylASC]","Appearance frequency (node count/arteriole count×100), individual rats",DOCA hypertensive rats; 10 mg/kg/day,25.89% and 20.56% and 27.27% and 274.91% and 33.35% and 15.00%
same,"Lesion index, individual rats",DOCA hypertensive rats; 10 mg/kg/day,1 (5×) and 4
same,"Appearance frequency, Avg",DOCA hypertensive rats; 10 mg/kg/day,66.16 ± 41.83%
same,"Lesion index, Avg",DOCA hypertensive rats; 10 mg/kg/day,1.50 ± 0.50
same,"Node count, Avg",DOCA hypertensive rats; 10 mg/kg/day,9.27
same,"Node count, individual rats",DOCA hypertensive rats; 10 mg/kg/day,2.33 (2×) and 3.00 and 40.33 and 5.67 and 2.00
same,"Appearance frequency (node count/arteriole count×100), individual rats",DOCA hypertensive rats; 40 mg/kg/day,7.89% and 3.19% and 16.67% and 36.59% and 25.62% and 28.87%
same,"Lesion index, individual rats",DOCA hypertensive rats; 40 mg/kg/day,1
same,"Appearance frequency, Avg",DOCA hypertensive rats; 40 mg/kg/day,26.57 ± 5.24 %
same,"Lesion index, Avg",DOCA hypertensive rats; 40 mg/kg/day,1.00 ± 0.00
same,"Node count, Avg",DOCA hypertensive rats; 40 mg/kg/day,2.67
same,"Node count, individual rats",DOCA hypertensive rats; 40 mg/kg/day,1.00 and 0.33 and 2.00 and 5.00 and 3.33 and 4.33
same,average aneurysm count per arteriole,"DOCA hypertensive rats; high-dose group (40 mg/kg/day), 7th week",0.27±0.05
same,aneurysms per arteriole on average,"DOCA hypertensive rats; low-dose group (10 mg/kg/day), 7th week",0.66±0.41
same,patients with vertigo,[3]; 17 patients,one
same,"Serum total cholesterol, Decrease","[3]; After 1 week, dose 0.5 (mg.kg)",−20%
same,Serum total cholesterol,"[3]; After 1 week, dose 0.5 (mg.kg), n = 17",273 ± 62.7 mg/dL
same,"Serum total cholesterol, Decrease","[3]; After 2 weeks, dose 1 (mg.kg)",−22%
same,Serum total cholesterol,"[3]; After 2 weeks, dose 1 (mg.kg), n = 17",266 ± 66.7 mg/dL
same,"Serum total cholesterol, Decrease","[3]; After 3 weeks, dose 2 (mg.kg)",−21%
same,Serum total cholesterol,"[3]; After 3 weeks, dose 2 (mg.kg), n = 17",269 ± 66.0 mg/dL
same,"Serum total cholesterol, Decrease","[3]; After 4 weeks, dose 4 (mg.kg)",−28%
same,Serum total cholesterol,"[3]; After 4 weeks, dose 4 (mg.kg), n = 17",254 ± 65.7 mg/dL
same,"Serum total cholesterol, Decrease","[3]; After 6 weeks, dose 8 (mg.kg)",−36%
same,Serum total cholesterol,"[3]; After 6 weeks, dose 8 (mg.kg), n = 17",217 ± 58.8 mg/dL
same,"Serum total cholesterol, Decrease","[3]; After 8 weeks, dose 16 (mg.kg)",−33%
same,Serum total cholesterol,"[3]; After 8 weeks, dose 16 (mg.kg), n = 17",229 ± 61.5 mg/dL
same,"Serum total cholesterol, Decrease",[3]; [5],−25%
same,Serum total cholesterol,[3]; [5],256 ± 57.6 mg/dL
same,"Serum total cholesterol, Decrease",[3]; [6],−22%
same,Serum total cholesterol,[3]; [6],264 ± 57.7 mg/dL
same,"side effects, subjective or objective","[3]; daily dose 1 mg/kg to 16 mg/kg, oral",no serious side effect; also recorded: no subjective or objective side effect
same,"blood glucose levels of 5 diabetics included in the patients, lowered to","[3]; human, in vivo",100 mg/dL
same,systolic and diastolic blood pressure of patients with hypertension or borderline hypertension,"[3]; human, in vivo",lowered
same,"Inflammation score (5 grades, 1 normal to 5 disabled by swelling in both hind legs)","[4]; HM group, 50 mg/kg oral once a day",2.2
same,"Inflammation score (5 grades, 1 normal to 5 disabled by swelling in both hind legs)","[4]; LM group, 10 mg/kg oral once a day",3.2
same,"Inflammation score (5 grades, 1 normal to 5 disabled by swelling in both hind legs)","[4]; MM group, 25 mg/kg oral once a day",2.8
same,walking of rats disabled by swelling in joint,[4]; after 1 week of oral administration,could walk again
same,"Arthritis (+), number of rats",[4]; [7],7
same,"Arthritis (−), number of rats",[4]; [7],7
